Assay [1] deals with Glutamate [NMDA] receptor. The experiment in a line: Ability to inhibit MK-801 binding to the NMDA receptor was determined. The class given is protein-complex assay.
Assay [2] has as its target Glutamate [NMDA] receptor. The experiment in a line: Ability to inhibit MK-801 binding to NMDA receptor in the presence of 100 uM of spermidine was determined. The class given is protein-complex assay.

Each structure is given as a SMILES string.

Take `CCN(Cc1cccc(CN(CC)C(=N)N)c1)C(=N)N`: the IC50 (in general, the point on the concentration scale where inhibition reaches its midpoint) was found to be 5.1 µM in assay [1] and 75.8 µM in assay [2].

In the case of `N=C(N)NCc1cccc(CNC(=N)N)c1`, the IC50 stood at 1.19 µM in assay [1] and 7.09 µM in assay [2].

For `CCCN(Cc1cc(CN(CCC)C(=N)N)cc(OC)c1)C(=N)N`, the values for the IC50 in assay [1] and in assay [2] were 20.6 µM and 55.3 µM, respectively.

Consider `CCCN(Cc1cccc(CN(CCC)C(=N)N)n1)C(=N)N`, for which the IC50 amounted to 8.62 µM in assay [1] and 95.2 µM in assay [2].

As for `N=C(N)NCc1cc(CNC(=N)N)cc(OC2CCCCC2)c1`, the IC50 was found to be 9.07 µM in assay [1] and 9.88 µM in assay [2].

Consider `N=C(N)NCc1cccc(CNC(=N)N)n1`, for which the IC50 in assay [1] came out at 4.02 µM; in assay [2], 49.3 µM.

With `CC(C)CN(Cc1cccc(CN(CC(C)C)C(=N)N)c1)C(=N)N`, the IC50 in assay [1] was found to be 10.8 µM; in assay [2] it was 112 µM.

For the compound `N=C(N)NCc1cc(CNC(=N)N)cc(NC(=O)c2ccccc2)c1`, the IC50 is 4.34 µM in assay [1] and 20.6 µM in assay [2].

In the case of `C=CCN(Cc1cccc(CN(CC=C)C(=N)N)c1)C(=N)N`, the IC50 in assay [1] is 3.85 µM; in assay [2], 29.8 µM.

Turning to `COc1cc(CNC(=N)N)cc(CNC(=N)N)c1`, the IC50 was found to be 1.3 µM in assay [1] and 5.89 µM in assay [2].

As for `N=C(N)NCc1cc(CNC(=N)N)cc(-c2ccccc2)c1`, the IC50 in assay [1] stood at 5.14 µM; in assay [2] it was 15.7 µM.

In the case of `CCCN(Cc1cccc(CN(CCC)C(=N)N)c1)C(=N)N`, the IC50 in assay [1] was found to be 0.58 µM; in assay [2], 12.2 µM.

As for `CC(C)Oc1cc(CNC(=N)N)cc(CNC(=N)N)c1`, the IC50 in assay [1] turned out to be 2.43 µM; in assay [2], 10.5 µM.

As for `CCCCN(Cc1cccc(CN(CCCC)C(=N)N)c1)C(=N)N`, the IC50 in assay [1] turned out to be 2.8 µM; in assay [2] it was 9.27 µM.

Turning to `N=C(N)N(Cc1ccccc1)Cc1cccc(CN(Cc2ccccc2)C(=N)N)c1`, the values for the IC50 in assay [1] and in assay [2] were 3.82 µM and 2.23 µM, respectively.

Regarding `CCCN(Cc1cc(O)cc(CN(CCC)C(=N)N)c1)C(=N)N`, the IC50 in assay [1] was found to be 10.6 µM; in assay [2] it was 111 µM.

In the case of `NC(N)=NCCCCN=C(N)N` [ARCAINE], the IC50 in assay [1] is 9.13 µM; in assay [2] it was 80 µM.
